Laboratory results from US20220298141A1, “ENZYME INHIBITORS” (KALVISTA PHARMACEUTICALS LIMITED, priority 2019, published 2022).

How the values were obtained:
Human FXIa = target: T1, Human FXIa (Homo sapiens, UniProt P03951); assay: Determination of FXIa inhibitory activity in vitro (fluorogenic substrate Z-Gly-Pro-Arg-AFC); assay type: biochemical; conditions: Selectivity, Human FXIa (Enzyme Research Laboratories), 25° C.
T1 construct: purchased Enzyme Research Laboratories

Human Factor XIIa = target: T2, Human Factor XIIa (Homo sapiens, UniProt P00748); assay: Determination of Factor XIIa inhibitory activity in vitro (fluorogenic substrate H-DPro-Phe-Arg-AFC); assay type: biochemical; conditions: Human Factor XIIa (Enzyme Research Laboratories), 25° C., read-out: Human FXIIa IC50
T2 construct: purchased Enzyme Research Laboratories
T2 sequence (P00748 373-615 limits assumed): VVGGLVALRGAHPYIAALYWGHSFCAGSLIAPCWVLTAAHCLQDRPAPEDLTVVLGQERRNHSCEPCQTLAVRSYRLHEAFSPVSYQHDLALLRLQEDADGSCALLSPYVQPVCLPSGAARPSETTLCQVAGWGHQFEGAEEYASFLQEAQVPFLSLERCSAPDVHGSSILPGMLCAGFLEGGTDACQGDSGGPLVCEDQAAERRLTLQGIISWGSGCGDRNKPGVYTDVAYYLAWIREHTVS
T2 sequence (P00748 20-372 partner limits assumed): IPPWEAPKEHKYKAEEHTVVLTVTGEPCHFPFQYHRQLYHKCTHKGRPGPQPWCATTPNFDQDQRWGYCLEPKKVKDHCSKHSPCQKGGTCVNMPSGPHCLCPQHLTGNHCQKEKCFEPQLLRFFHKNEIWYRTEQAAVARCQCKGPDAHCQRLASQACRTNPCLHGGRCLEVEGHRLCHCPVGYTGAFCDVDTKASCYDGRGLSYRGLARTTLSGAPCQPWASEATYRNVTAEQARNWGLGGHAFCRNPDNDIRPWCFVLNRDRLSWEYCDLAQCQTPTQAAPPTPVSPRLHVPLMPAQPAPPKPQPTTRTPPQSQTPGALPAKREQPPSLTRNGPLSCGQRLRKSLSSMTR
Summary of the method: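 In vitro inhibition of human Factor XIIa (sourced from Enzyme Research Laboratories) was measured by incubating the enzyme at 25° C. with the fluorogenic substrate H-DPro-Phe-Arg-AFC across a range of test compound concentrations. The initial reaction rate, taken as residual enzyme activity, was followed by the […], and IC50 values were calculated.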

T1 sequence (P03951 388-625 limits assumed): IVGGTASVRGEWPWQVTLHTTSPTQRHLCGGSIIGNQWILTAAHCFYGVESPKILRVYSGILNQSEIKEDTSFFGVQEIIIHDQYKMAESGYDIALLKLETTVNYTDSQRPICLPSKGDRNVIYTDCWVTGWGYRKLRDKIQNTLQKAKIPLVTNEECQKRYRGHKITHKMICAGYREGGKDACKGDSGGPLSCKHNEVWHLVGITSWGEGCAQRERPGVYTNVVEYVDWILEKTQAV
T1 sequence (P03951 19-387 partner limits assumed): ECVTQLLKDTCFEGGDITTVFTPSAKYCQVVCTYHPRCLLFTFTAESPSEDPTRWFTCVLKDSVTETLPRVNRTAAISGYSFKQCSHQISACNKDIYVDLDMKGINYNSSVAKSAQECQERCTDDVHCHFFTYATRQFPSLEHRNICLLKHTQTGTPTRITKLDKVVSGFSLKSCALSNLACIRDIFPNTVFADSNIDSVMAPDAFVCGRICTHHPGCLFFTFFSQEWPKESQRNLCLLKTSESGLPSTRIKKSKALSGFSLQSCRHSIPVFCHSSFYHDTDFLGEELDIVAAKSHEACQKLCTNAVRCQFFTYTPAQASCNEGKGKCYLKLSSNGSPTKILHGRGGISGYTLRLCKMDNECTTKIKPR

Row | SMILES | IC50 (Human FXIa) [µM] | IC50 (Human Factor XIIa) [µM]
1 | COc1ccc(-n2cncn2)c(CNC(=O)c2nccnc2NCC2CCN(C)CC2)c1F [Example 33.17] | > 40 | 10 to 40
2 | Cc1c(CNC(=O)c2nccnc2NCC2CCN(C)CC2)ccc2c(N)nccc12 [Example 33.18, N-((1-amino-5-methylisoquinolin-6-yl)methyl)-3-(((1-methylpiperidin-4-yl)methyl)amino)pyrazine-2-carboxamide] | > 40 | 0.3 to 1
3 | CN1CCC(CNc2nccnc2C(=O)NCc2cc(F)c3c(N)nccc3c2)CC1 [Example 33.19] | > 40 | 10 to 40
4 | CN1CCC(CNc2nccnc2C(=O)NCc2cc3c(N)nccc3s2)CC1 [Example 33.21] | > 40 | 3 to 10

The remaining lines, values ahead:

Row | IC50 (Human FXIa) [µM] | IC50 (Human Factor XIIa) [µM] | SMILES
5 | > 40 | 3 to 10 | CN1CCC(CNc2nccnc2C(=O)NCc2ccc3ccnc(N)c3c2)CC1 [Example 33.16]
6 | 13.5 | 1 to 3 | COc1cc2c(N)nccc2cc1CNC(=O)c1nccnc1NCC1CCN(C)CC1 [Example 33.20]
